Measurements reported in US20230293495A1, “PHARMACEUTICAL FORMULATIONS FOR TREATING DISEASES MEDIATED BY KDM1A” (Imago Biosciences, Inc., priority 2020, published 2023).

Experiments:
KDM1A = KDM1A (Homo sapiens, UniProt O60341); assay: Inhibition of KDM1A; type: biochemical
[1] = Excipient compatibility study: binary mixtures of Compound B and excipient in open vials, assay and related substances (RS); type: physicochemical; settings: for RS-1 (related substance): in %; for Total related substances: in % (unit assumed)
Method: Commonly used excipients for oral solid dosage formulations were evaluated for this study including fillers, binders, disintegrants, glidants, lubricants and organic acid stabilizers.
Briefly, each excipient and API were individually weighed and filled in vials, followed by the addition of glass beads. The samples were closed, vortexed, and refrigerated at 2 to 8° C. prior to initiation of study as the sample preparation was executed over a period of 10 days. All vials were removed from the refrigerator and allowed to equilibrate to room temperature, then opened, and stored at the designated storage conditions at the same t=0.

| Structure (SMILES) | Inhibition of KDM1A, in words (KDM1A) | % LC (assay) ([1]; 1 week, 50° C./11% RH) [% LC] | RS-1 (related substance) ([1]; 1 week, 50° C./11% RH) | Total related substances ([1]; 1 week, 50° C./11% RH) | % LC (assay) ([1]; 1 week, 50° C./75% RH) [% LC] | Related substance RRT 1.081 ([1]; 1 week, 50° C./75% RH) [%] | RS-1 (related substance) ([1]; 1 week, 50° C./75% RH) | Total related substances ([1]; 1 week, 50° C./75% RH) | % LC (assay) ([1]; 2 weeks, 50° C./11% RH) [% LC] | RS-1 (related substance) ([1]; 2 weeks, 50° C./11% RH) | Total related substances ([1]; 2 weeks, 50° C./11% RH) | % LC (assay) ([1]; 2 weeks, 50° C./75% RH) [% LC] | Related substance RRT 1.081 ([1]; 2 weeks, 50° C./75% RH) [%] | RS-1 (related substance) ([1]; 2 weeks, 50° C./75% RH) | Total related substances ([1]; 2 weeks, 50° C./75% RH) | % LC (assay) ([1]; week 0) [% LC] | Related substance RRT 1.081 ([1]; week 0) [%] | RS-1 (related substance) ([1]; week 0) | Total related substances ([1]; week 0) |
| --- | --- | --- | --- | --- | --- | --- | --- | --- | --- | --- | --- | --- | --- | --- | --- | --- | --- | --- | --- |
| CN1CCN(C(=O)[C@H](CCCN[C@@H]2C[C@H]2c2ccc(F)cc2)NC(=O)c2ccc(-n3ccnn3)cc2)CC1 [Compound A, N—((S)-5-((1R,2S)-2-(4-fluorophenyl)cyclopropylamino)-1-(4-methylpiperazin-1-yl)-1-oxopentan-2-yl)-4-(1H-1,2,3-triazol-1-yl)benzamide] | has shown activity for the inhibition of KDM1A |  |  |  |  |  |  |  |  |  |  |  |  |  |  |  |  |  |  |
| CN1CCN(C(=O)[C@H](CCCN[C@@H]2C[C@H]2c2ccc(F)cc2)NC(=O)c2ccc(-n3ccnn3)cc2)CC1.Cc1ccc(S(=O)(=O)O)cc1 [Compound B, N—((S)-5-((1R,2S)-2-(4-fluorophenyl)cyclopropylamino)-1-(4-methylpiperazin-1-yl)-1-oxopentan-2-yl)-4-(1H-1,2,3-triazol-1-yl)benzamide ditosylate] | has shown activity for the inhibition of KDM1A | 98.824 | 0.1652 | 0.2245 | 102.663 | 0.0649 | 0.1453 | 0.2102 | 100.211 | 0.3516 | 0.4595 | 101.800 | 0.0715 | 0.3545 | 0.4260 | 102.973 | 0.0589 | 0.0935 | 0.1525 |
